Active and inactive are the calls of the source. The calls are words filed in the database; no cut-off is given here.
How the values were obtained:
[1] = system: Streptococcus mutans; assay: Antibacterial activity against Streptococcus mutans ATCC 25175 assessed as reduction in bacterial growth at 1.25 to 100 ug/ml by broth microdilution method relative to control; assay type: functional; set-up: scale not given: the % may be the effect or the level left; conditions: dose 1.25-100 µg/ml; at 1.25 to 100 µg/mL
[2] = system: RAW264.7; assay: Antiinflammatory activity in LPS induced mouse RAW264.7 cells assessed as inhibition of IL-6 production at 100 ug/ml measured after 24 hrs; assay type: functional; conditions: dose 100 µg/ml
[3] = system: RAW264.7; assay: Antiinflammatory activity in mouse RAW264.7 cells assessed as inhibition of TNF-alpha production; assay type: functional, cell-based; conditions: dose <= 100.0 µg/ml
[4] = system: RAW264.7; assay: Antiinflammatory activity in LPS induced mouse RAW264.7 cells assessed as reduction in TNF-alpha production at 100 ug/ml measured after 24 hrs; assay type: functional; conditions: dose 100 µg/ml
[5] = system: Streptococcus sobrinus; assay: Antibacterial activity against Streptococcus sobrinus ATCC 33478 assessed as reduction in bacterial growth at 1.25 to 100 ug/ml by broth microdilution method relative to control; assay type: functional; set-up: scale not given: the % may be the effect or the level left; conditions: dose 1.25-100 µg/ml; at 1.25 to 100 µg/mL
[6] = system: RAW264.7; assay: Antiinflammatory activity in mouse RAW264.7 cells assessed as inhibition of IL-6 production; assay type: functional, cell-based; conditions: dose <= 100.0 µg/ml
[7] = system: Streptococcus mutans; assay: Antibacterial activity against Streptococcus mutans ATCC 25175 assessed as reduction in bacterial growth at 1.25 to 100 ug/ml by broth microdilution method; assay type: functional, organism-based; conditions: dose 1.25-100 µg/ml
[8] = system: Streptococcus sobrinus; assay: Antibacterial activity against Streptococcus sobrinus ATCC 33478 assessed as reduction in bacterial growth at 1.25 to 100 ug/ml by broth microdilution method; assay type: functional, organism-based; conditions: dose 1.25-100 µg/ml

Row | SMILES | Activity [1] | Activity [2] | Activity [3] | Activity [4] | Activity [5] | Activity [6] | Activity [7] | Activity [8]
1 | C[C@@H]1O[C@@H](O[C@H]2[C@@H](O)[C@H](O)[C@@H](C)O[C@H]2c2c(O)cc3oc(-c4ccc(O)c(O)c4)cc(=O)c3c2O)[C@@H](O)[C@H](O)[C@H]1O | 24% | 766.6 pg/mL | Dose-Dependent Effect | 7473.5 pg/mL | 26% | Dose-Dependent Effect |  | 
2 | C[C@H]1O[C@@H](c2c(O[C@@H]3O[C@H](CO)[C@@H](O)[C@H](O)[C@H]3O)cc3oc(-c4ccc(O)c(O)c4)cc(=O)c3c2O)C[C@H](O)[C@H]1O [FAROBIN A] | 28% | 1051.8 pg/mL | Dose-Dependent Effect | 9606 pg/mL | 26% | Dose-Dependent Effect |  | 
3 | C[C@@H](/C=C/[C@@]1(O)C(C(=O)O)=CC(=O)CC1(C)C)O[C@@H]1O[C@H](CO)[C@@H](O)[C@H](O)[C@H]1O |  | 1570.7 pg/mL | Dose-Dependent Effect | 9806.7 pg/mL |  | Dose-Dependent Effect | inactive | inactive

— ChEMBL document CHEMBL5634168, “The discovery of an anti-inflammatory monoterpenoid, neoroseoside from the Zea mays” (2024)
